Here are results for 4 molecules from PMC3383692, “Characterization of Plasmodium falciparum Adenylyl Cyclase-β and Its Role in Erythrocytic Stage Parasites” (PLoS ONE, 2012).

Read-outs that look alike come from different tables or passages of the source.

The target in data set [1] is T1, PfACβ (adenylyl cyclase-β) (Plasmodium falciparum, UniProt C0H4R1).
T1 construct: gene PF3D7_0802600; GST-PfACβ1-785 (catalytic domains, AA 1–785)
T1 sequence (C0H4R1 1-785): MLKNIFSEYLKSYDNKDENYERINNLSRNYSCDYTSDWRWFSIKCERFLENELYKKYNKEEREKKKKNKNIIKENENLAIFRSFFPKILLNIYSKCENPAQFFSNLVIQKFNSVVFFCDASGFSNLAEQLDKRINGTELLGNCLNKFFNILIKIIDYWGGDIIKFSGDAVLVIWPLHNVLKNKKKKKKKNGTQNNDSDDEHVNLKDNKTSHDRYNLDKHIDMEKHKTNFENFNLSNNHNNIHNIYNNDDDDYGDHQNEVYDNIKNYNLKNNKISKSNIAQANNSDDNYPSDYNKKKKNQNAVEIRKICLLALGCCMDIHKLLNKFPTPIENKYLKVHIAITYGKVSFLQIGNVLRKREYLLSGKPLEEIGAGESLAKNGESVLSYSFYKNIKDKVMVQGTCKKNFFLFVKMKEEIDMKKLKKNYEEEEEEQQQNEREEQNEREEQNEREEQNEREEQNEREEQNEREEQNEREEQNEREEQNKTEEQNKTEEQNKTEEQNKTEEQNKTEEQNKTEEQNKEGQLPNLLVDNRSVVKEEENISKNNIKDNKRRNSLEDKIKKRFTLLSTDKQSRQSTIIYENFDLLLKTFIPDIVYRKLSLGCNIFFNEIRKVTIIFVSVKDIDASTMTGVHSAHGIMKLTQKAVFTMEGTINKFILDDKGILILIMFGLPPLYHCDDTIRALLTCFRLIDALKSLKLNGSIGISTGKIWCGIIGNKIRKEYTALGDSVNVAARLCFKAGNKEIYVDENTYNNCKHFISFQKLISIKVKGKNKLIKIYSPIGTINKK
The data set is described as follows: radioactive two-column adenylyl cyclase assay with purified GST-PfACβ[…]-785. Format: biochemical.

The target in a further data set is T2, PfACα (Plasmodium falciparum, UniProt Q8I7A1).
T2 construct: gene ac1
T2 sequence (Q8I7A1 1-884): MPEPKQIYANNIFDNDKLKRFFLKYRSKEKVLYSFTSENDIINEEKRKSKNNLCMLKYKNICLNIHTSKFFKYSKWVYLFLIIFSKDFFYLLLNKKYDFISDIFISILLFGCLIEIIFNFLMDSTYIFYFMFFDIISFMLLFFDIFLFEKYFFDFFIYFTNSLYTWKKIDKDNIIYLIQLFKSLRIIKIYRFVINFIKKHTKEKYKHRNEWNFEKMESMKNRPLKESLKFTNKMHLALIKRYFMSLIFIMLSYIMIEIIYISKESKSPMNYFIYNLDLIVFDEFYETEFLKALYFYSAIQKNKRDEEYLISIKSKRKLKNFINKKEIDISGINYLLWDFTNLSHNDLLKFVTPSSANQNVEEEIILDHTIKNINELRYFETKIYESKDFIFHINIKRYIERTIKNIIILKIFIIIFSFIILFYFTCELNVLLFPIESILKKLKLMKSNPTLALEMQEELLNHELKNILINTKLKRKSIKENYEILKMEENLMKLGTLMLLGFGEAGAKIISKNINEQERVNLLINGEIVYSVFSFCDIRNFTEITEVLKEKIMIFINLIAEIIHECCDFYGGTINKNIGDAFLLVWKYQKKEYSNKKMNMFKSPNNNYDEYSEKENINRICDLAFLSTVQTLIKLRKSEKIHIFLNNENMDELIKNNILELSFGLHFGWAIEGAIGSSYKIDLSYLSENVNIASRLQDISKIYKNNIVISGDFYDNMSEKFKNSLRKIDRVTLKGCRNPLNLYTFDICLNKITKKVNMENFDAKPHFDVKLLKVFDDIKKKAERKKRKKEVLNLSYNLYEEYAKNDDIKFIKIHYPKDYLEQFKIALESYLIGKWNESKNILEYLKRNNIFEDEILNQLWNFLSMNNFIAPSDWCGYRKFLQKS
The data set is described as follows: adenylyl cyclase activity in PfACα-expressing Hi5 cells, […] 2-CE. Type of data set: cell-based.

Substrate in data set [2]: Nc1ncnc2c1ncn2[C@@H]1O[C@H](COP(=O)(O)OP(=O)(O)OP(=O)(O)O)[C@@H](O)[C@H]1O
The data set is described as follows: Michaelis-Menten kinetics (Km), adenylyl cyclase assay with purified enzyme. The following applies: Mn2+ active site; lack of cooperative binding of substrate. Type of data set: biochemical, Plasmodium falciparum.

As usually defined, the IC50 is the concentration that gives 50% inhibition. In general, Km refers to the substrate concentration at which the rate is half of its maximum.

With `C[C@]12CC[C@@H]3c4cc(O)c(O)cc4CC[C@H]3[C@@H]1CC[C@@H]2O` [2-CE, 2-hydroxyestradiol], the IC50 in data set [1] stood at 8 µM. Further, the “adenylyl cyclase activity in PfACα-expressing Hi5 cells, 50 μM 2-CE” value at PfACα is on record as “although PfACα adenylyl cyclase activity was inhibited by 2-CE, it was largely insensitive to KH7 (Figure 4C)”.

As to `CC(Sc1nc2ccccc2[nH]1)C(=O)N/N=C/c1cc(Br)ccc1O` (racemic) [KH7], the 50% inhibitory concentration (IC50) in data set [1] (read-out: IC50) came out at 5 µM.

Regarding KH7.15, the IC50 in data set [1] (read-out: IC50) came to 150 µM.

B1: PfACβ (adenylyl cyclase-β) (Plasmodium falciparum 3D7) (protein)
chain: T1 sequence (C0H4R1 1-785)
notes: GST-PfACβ1-785 (catalytic domains, AA 1–785)
Consider B1, for which the Michaelis constant (Km) in data set [2] came to 570 µM.
